Assay: Human HepG2 cell viability assay in 384 well format
Format: toxicity, cell-based
Set-up: dose 125 nL, time 70.5 hour; cytotoxicity at 70.5 h: concentration not given beside the values
Settings: HepG2 cells, read-out: Inhibition

SMILES | cytotoxicity at 70.5 h
Cc1cn([C@@H]2CC3(CCNCC3)OC[C@@]2(C)O)c(=O)[nH]c1=O | 0.487%
Cc1nnc(NC(=O)N2CCN(Cc3ccc(F)cc3)C(=O)C2)s1 | 1.21%
CC(NC(=O)CN1CCN(c2cccc(Cl)c2)CC1)c1ccco1 (stereo not given) | -5.94%
CN1CCN(C2CCN(c3cnc4ccccc4n3)CC2)C1=O | -12.4%
COCCC1(CNC(=O)Nc2ccc(-n3ccnn3)cc2)CCC1 | 4.76%
OC(CNc1ccc(Cl)cn1)CN1CCOCC1 (stereo not given) | 2.86%
CCc1noc(C2CCCCN2C(=O)c2cc(C)n(C)n2)n1 (stereo not given) | 16.6%
CC(C)OCCC(=O)NCC(c1c(F)cccc1F)N(C)C (stereo not given) | 22.3%
CNc1ncc(C(=O)N2CCC(c3ccccc3C(=O)O)C2)cn1 (stereo not given) | -5.85%
O=C1[C@H]2CN(Cc3ccccc3)C[C@H]2CN1c1cncnc1 | -2.62%
CN(Cc1c(F)cccc1Cl)C(=O)c1cnn(CCN2CCOCC2)c1 | -12.6%
O=C(c1cccnc1SC/C=C/c1ccccc1)N1CC[C@H](O)C1 | 2.11%
CCNc1cc2c(nn1)CCN(C(=O)c1cccc(CSC)c1)C2 | -3.17%
O=C(NCCCNC(=O)c1cccc(O)c1)NCc1ccccc1F | -9.83%
CNC(=O)CN1C(=O)CN(C(=O)COC)CCC(OC)c2ccccc21 (stereo not given) | 15.1%
CC1CCC(NCCNC(=O)c2cccs2)CC1 (stereo not given) | -7.09%
O=C(NC[C@H]1OC[C@@H](NCc2ccccn2)[C@@H]1O)c1ccc(F)cc1 | 2.33%
COc1cc(C2(C(=O)N3CCN(CC(C)O)CC3)CC2)ccc1C (stereo not given) | 10.5%
CC(C)c1nn(C)c(N(C)C)c1CNCc1cccc(CN(C)C)c1 | 0.875%
COCC1COCCC12CCN(C(=O)CCOc1ccccc1)CC2 (stereo not given) | -2.28%
COCCN1CC[C@@H]2OC[C@H](C(=O)N(C)Cc3ccccn3)C[C@@H]2C1 | -3.83%
COCCNC(=O)Cn1cc(OCc2ccccc2F)c(=O)cc1CO | 45.6%
Cn1c(=O)oc2ccc(Nc3ncc(C#N)cc3Cl)cc21 | -2.37%

SMILES | cytotoxicity at 70.5 h
O=C(N[C@@H]1CCNC[C@H]1O)c1ccc(-c2ccc(F)cc2)cc1 | -1.9%
COc1cccc([C@@H]2CCN(Cc3[nH]nc(C)c3Cl)C[C@H]2O)c1 | -22.1%
Cc1nn(CC(=O)N2CCN(Cc3cnn(C)c3C)CC2)cc1Br | 29.4%
Cc1nc(COc2ccc(CNCC3CN(C)CCO3)cc2)cs1 (stereo not given) | 20.1%
COc1cccc(-c2n[nH]c3c2CN(C(=O)c2cccc(=O)[nH]2)CC3)c1 | -6.52%
COc1ccc(F)c(-c2cc(NCCO)nc(N)n2)c1 | -3.97%
Cc1cscc1C(=O)Nc1cncnc1N(C)C | -7.99%
CCn1c(NCc2ccco2)nc2c(C)nn(C)c2c1=O | 31.6%
O=C(C1CCOCC1)N1CCOC(CC2CCCCC2)C1 (stereo not given) | -8.55%
Cc1nc(C2CCCN2C(=O)c2ccc(=O)n(C)n2)no1 (stereo not given) | -5.27%
Cc1noc(C)c1CN1CCC2(CC1)CCN(C(=O)c1cscn1)C2 | 10.4%
COc1ccccc1C1(CNc2cn[nH]c(=O)c2Cl)CCOCC1 | -13.8%
CN1CCN(C(=O)c2cc3sccc3n2Cc2ccccc2)CC1 | -6.85%
COCC1COCCC12CCN(C(=O)Cc1ccc(F)cc1)CC2 (stereo not given) | -16.1%
Cc1nc(C2CCN(C(=O)c3cnc(N(C)C)nc3)CC2)c2sccn12 | 1.86%
CC(=O)NCC(=O)N(CCN1CCOCC1)Cc1ccco1 | 3.23%
CNc1cnc(CC2COCCN(CCOc3ccccc3)C2)cn1 (stereo not given) | -1.63%
CCC(CN1CCCC1)NC(=O)C1(c2ccc(F)cc2)CC1 (stereo not given) | -7.41%
Cc1ccsc1C(=O)NCc1ccnc(OCC(F)(F)F)c1 | -5.25%
CCS(=O)(=O)N1C[C@@H](OCc2ccccn2)[C@@H]2OCCC[C@@H]21 | -9.16%
CC(=O)N1CCC(C(=O)c2cc(C)cnc2N)CC1 | -15.5%
CCOCc1ncn2c1CN(S(=O)(=O)c1cccc(C)c1)CC2 | -1.4%
CC1(C)CN(C(CNS(C)(=O)=O)c2ccc(Cl)cc2)CCO1 (stereo not given) | -5.58%

SMILES | cytotoxicity at 70.5 h
Cc1ccsc1C(=O)N1CCc2ncc(CN(C)C)n2CC1 | -7.39%
CCc1c(C)nc(N)nc1N1CCCC(c2nc(CCOC)no2)C1 (stereo not given) | 4.51%
O[C@@H]1CCN(CC2CC2)[C@H]1Cc1ccccc1 | -23%
CC(C(=O)N1CCN(c2cnccn2)CC1)n1cncn1 (stereo not given) | -4.32%
NS(=O)(=O)N1CCC(CSc2ccccc2)C1 (stereo not given) | -9.2%
CCN1CCOCC2(CCCN(C(=O)c3ccccc3F)C2)C1 (stereo not given) | 8.58%
COCC(=O)N(C)Cc1ccc(F)c(F)c1 | 28.3%
Cc1cccc(C(=O)NCc2ccc(N3CCCCCC3)nc2)n1 | -6.26%
O=C1N(Cc2cccc(F)c2F)CCCC1(O)CNCC1CCCCC1 (stereo not given) | 0.845%
CC(C)(C)CNC[C@H]1Cn2ccnc2CO1 | -4.98%
N#Cc1ccc(CN(CC(N)=O)C2CCCC2)cc1 | -9.26%
Cc1ccccc1CS(=O)(=O)NCCCN1CCCC1 | -2.2%
O=C(c1ccncn1)N1CCC[C@]2(C[C@H](OCC3CC3)CO2)C1 | -15.2%
Cc1cccc(CN2C[C@@H]3OCCN(S(=O)(=O)N(C)C)[C@@H]3C2)c1 | -2.05%
CN1C(=O)CCN(C(=O)C2CCCCC2)c2ccccc21 | 9.73%
COCc1c(Cl)cccc1NC(=O)NCc1cccc(N(C)C)n1 | 1.02%
CC(=O)c1c(C)cc(C)c(CS(=O)(=O)c2nccn2C)c1C | 8.95%
CCc1nc(CNc2ccc(-c3nc(C4CC4)no3)cn2)no1 | -9.74%
NC(=O)C1CCN(c2cncc(-n3cccn3)n2)CC1 | 6.36%
COC(=O)NCC(=O)N1CCCC(c2ncc[nH]2)C1 (stereo not given) | -27.3%
Cc1ccc(C(=O)NCCSCc2cccs2)cn1 | 12.6%
CN(C)Cc1nnc(C2CCN(c3ncccn3)CC2)n1C1CC1 | 12.1%
CCN1CCC(NC(=O)CN2CCCC2Cn2nc(C)nc2C)CC1 (stereo not given) | 3.87%

SMILES | cytotoxicity at 70.5 h
c1cncc(CNC2CCc3ncnn3C2)c1 (stereo not given) | 34.5%
COCC(=O)N1CCC[C@]2(C(=O)N(C)C)CN(c3ccccn3)C[C@@H]2C1 | -5.67%
Cc1ccc(S(=O)(=O)NC2CC2)cc1C | -5.86%
CN(C(=O)c1ccc2c(c1)nc(N1CC[C@H](O)C1)n2C)C1CCSCC1 | 24.9%
c1cc(CNCc2cccc3c2OCCO3)cc(Cn2cncn2)c1 | -10.5%
O=C(Nc1cccnc1)c1ccc(-n2cncn2)nn1 | 13.8%
CC(C)C(=O)N1CCC2(COCc3cnc(-c4cccnc4)nc32)C1 (stereo not given) | -7.75%
NC(=O)CS(=O)(=O)Cc1csc(-c2ccccc2)n1 | -4.61%
COc1ccc(Br)c(NC(=O)NCc2ncnn2C)c1 | -9.33%
CC(C)=CCN(C)C1CCCN(Cc2noc(C)n2)C1 (stereo not given) | 21.1%
c1ccc(Cc2cccc(C3CCCN3C3CCOCC3)n2)cc1 (stereo not given) | -13.2%
CC[C@H]1CN(S(C)(=O)=O)CC[C@H]1CC(=O)NCCSC | -2.51%
Cc1nn(CC(=O)N2CCC3(CN(C)C(=O)O3)C2)c(=O)c2ccccc12 (stereo not given) | -15%
COCCN1C(=O)CCC12CCCN(Cc1nccs1)CC2 (stereo not given) | -6.77%
O=C(CCCn1cnc2ccccc2c1=O)Nc1nc[nH]n1 | 22.9%
CC(=O)NCC(=O)N1Cc2cnc(CC(C)C)nc2C1 | -5.57%
O=C(NC1CCC1)[C@@H]1CCO[C@@H]2CCN(CCc3ccccc3)C[C@H]21 | -3.26%
Cn1ccnc1CCNS(=O)(=O)c1ccc(Br)cc1 | 9.92%
Cc1occc1C(=O)N1CCC2(CCN(Cc3cccs3)C2)CC1 | -1.13%
Cn1cc(C(C)(O)CNC(=O)c2ccc(Br)s2)cn1 (stereo not given) | 48.4%
CNS(=O)(=O)CC(=O)NC(C)Cc1cccc(Cl)c1 (stereo not given) | -2.05%
CN(C)C(=O)C1CCN(Cn2nc(-c3ccc(F)cc3)oc2=O)CC1 | -5.92%
CCCNS(=O)(=O)Cc1ccc(Br)cc1 | -7.66%

SMILES | cytotoxicity at 70.5 h
COc1ccc(CN2CCCC2)cc1Oc1ccc2c(c1)CC(CN)O2 (stereo not given) | -11.3%
Cc1nnc(CSc2ccc(C(F)(F)F)cn2)o1 | 2.72%
CC(Cn1cccn1)NC(=O)NCCCN1CCCCCC1=O (stereo not given) | 0.306%
O=C(CCNc1ncccn1)NCCc1ccn(-c2ccccc2)n1 | 22%
CNC(=O)c1cnc2c(C)csc2c1 | 22%
Cc1cccc(C(=O)Nc2ccc(OC3CCN(C)CC3)cc2)c1 | 19.2%
CC(C)(C)C(O)CN1CCN(CC(=O)NCC(F)(F)F)CC1 (stereo not given) | 13.1%
COCCNC(=O)c1ccc2c(=O)n3c(nc2c1)CCCCCC3 | 7.92%
Cc1cnc(C)c(-c2cc(O)c3c(c2)CN(Cc2nccs2)CCO3)n1 | -4.63%
Cc1ccccc1N1CCCN(C(=O)CCCn2ccnc2C)CC1 | -12.2%
O=C(O)Cc1cccc(-n2ccnc2-c2ccc(F)c(Cl)c2)c1 | -0.808%
CN1CCCC1CCn1ccnc1-c1nc2ccccc2[nH]1 (stereo not given) | -0.748%
OC[C@H]1CN(Cc2c(Cl)cncc2Cl)C[C@H]1CN1CCCC1 | -9.31%
Cc1noc(C)c1CN(C)Cc1nc(N)c2ccccc2n1 | 13.8%
O=C([C@H]1CC[C@@H]2[C@@H](CCN2C2CCCC2)O1)N1CCOCC1 | -12.8%
Cn1nc(C2CCCN(Cc3ccc(F)cc3)C2)c2nccnc21 (stereo not given) | 5.25%
COC[C@@H]1CCC[C@]12CN(S(=O)(=O)c1cccs1)CCO2 | -4.17%
CCCc1cnc(C)nc1N1CCC(Cc2ccc(CO)cc2)C1 (stereo not given) | -10.5%
CCc1nc(CNCC2(C(N)=O)CCOCC2)cs1 | -4.76%
COc1ncccc1C(=O)N1CCCC1c1c(C)nn(C)c1Cl (stereo not given) | -0.671%
CNc1cc(N2CCCC2CNCc2cccs2)ncn1 (stereo not given) | -1.51%
Cc1csc2c(=O)n(CCSc3cnn[nH]3)cnc12 | -7.83%
CC(C)NC(=O)CC1COC2(CCN(Cc3cccnc3)CC2)C1 (stereo not given) | -12.2%
